# From patent US20160166608A1, “METHODS OF TREATING CANCER WITH HIGH POTENCY LIPID-BASED PLATINUM COMPOUND FORMULATIONS ADMINISTERED INTRAPERITONEALLY” (Insmed Incorporated, priority 2005, published 2016)
# System: L1210 cells
# Test: Survival of DBA/2 mice with L1210 cells after a single ip bolus (Example 15)
# Type: in vivo, mouse
# Details: 6 mg/kg single ip bolus on day 5; L1210, DBA/2 mice
# Method: DPPC (3.0 g) and cholesterol (1.2 g) were co-dissolved in 20 mL of ethanol. • 2.
# The mice were given equivalent amounts of cisplatin containing therapeutics based on the amount of lipid instead of the amount of cisplatin.
# Female DBA/2 mice (Charles Rivers) were used. Thirty (30) mice were injected with 2×10^6 L1210 cells ip on Day 0. On day 1, the mice were weighed and randomized into 3 groups of 10 mice. […] Survival was monitored. Mice were weighed daily after day 10. Mice that lost 20% or greater of their starting weight were euthanized by CO2 inhalation. The date of their death was recorded on data sheets. Median survival was calculated by Prism GraphPad.
smiles,measurement,value
"N.N.[Cl][Pt][Cl] [cisplatin, cis-diamine-dichloroplatinum (II)]",days of median survival,19.5 days
